Converted amounts (≈) assume the structure as drawn. “And” between values parts separate entries of the source, which are not always exact repeats. Identical values can stand only once. Like-named read-outs stand apart in the source and are kept apart here.
Legend:
[1] = system: Giardia duodenalis trophozoites, sheep S2 strain; test: G. duodenalis trophozoite proliferation, sheep S2 strain; conditions: for IC50 / IC50 Single Compound: compound alone; for Class of Interaction / ΣFIC50: in combination with ascorbic acid
[2] = system: Giardia duodenalis trophozoites, ATCC PRA-251; test: G. duodenalis trophozoite proliferation, ATCC PRA-251 (metronidazole resistant); conditions: for IC50: read-out: IC50 Single Compound; for inhibition of the metronidazole resistant strain (in words): pure compounds at 300 μg/mL; for Class of Interaction / ΣFIC50: in combination with ascorbic acid
[3] = system: Giardia duodenalis trophozoites; test: G. duodenalis trophozoite proliferation (strain not specified or several strains together); format: cell-based; conditions: for inhibition at 300 µg/mL: Giardia duodenalis; for inhibition at 300 µg/mL / inhibition of trophozoite proliferation: pure compounds at 300 μg/mL; for IC50: compound alone, over the different strains
[4] = system: Giardia duodenalis trophozoites, ATCC203333; test: G. duodenalis trophozoite proliferation, ATCC203333 (metronidazole sensitive); conditions: for Class of Interaction / ΣFIC50: in combination with ascorbic acid
human dermal fibroblast = conditions: for Toxicity Compound/ascorbic acid combination HDF: in combination with ascorbic acid
Artemia nauplii = conditions: for Toxicity Compound Alone ALA: 24 hours exposure; for Toxicity Compound/ascorbic acid combination ALA: in combination with ascorbic acid
Clostridium perfringens = test: microbe, parasite or virus in culture; format: cell-based
Bacillus anthracis = test: microbe, parasite or virus in culture; format: cell-based
[5] = system: Artemia franciscana nauplii; conditions: in vivo
[6] = Giardia duodenalis, in Ovis aries, read-out: IC50 Single Compound, Sheep S2 Strain
[7] = metronidazole sensitive G. duodenalis strain
[8] = Giardia duodenalis, ATCC203333, read-out: IC50 Single Compound
[9] = compound alone, 24 hours exposure
[10] = read-out: IC50 Single Compound, Sheep S2 Strain
[11] = all three G. duodenalis strains
[12] = read-out: IC50 Single Compound, ATCC203333, compound alone

Compound | Toxicity Compound Alone HDF (human dermal fibroblast; [9]) | Toxicity Compound/ascorbic acid combination HDF (human dermal fibroblast) | IC50 Single Compound ([1]; Sheep S2 Strain) | Class of Interaction ([1]; Sheep S2 Strain) | ΣFIC50 ([1]; Sheep S2 Strain) | Toxicity Compound Alone ALA (Artemia nauplii) | Toxicity Compound/ascorbic acid combination ALA (Artemia nauplii) | Class of Interaction ([2]; ATCC PRA-251) | ΣFIC50 ([2]; ATCC PRA-251) | inhibition of trophozoite proliferation [3, 11] | Class of Interaction ([4]; ATCC203333) | ΣFIC50 ([4]; ATCC203333) | further results
O=C1O[C@H]([C@@H](O)CO)C(O)=C1O [Ascorbic acid, ascorbic acid] | – | – | – | – | – | – | – | – | – | – | – | – | IC50 [1, 6]: 1870 µg/mL and 10.6 mM; IC50 ([2]; Giardia duodenalis): 2850 µg/mL and 16.2 mM; inhibition of the metronidazole resistant strain (in words) [2]: ineffective inhibitors; inhibition at 300 µg/mL [3, 7]: ~15%; IC50 [4, 8]: 1910 µg/mL and 10.8 mM
O=C(O)C[C@H](C(=O)O)[C@H]1c2c(cc(O)c(O)c2O)C(=O)O[C@@H]1C(=O)O [Chebulic acid, chebulic acid] | 380 µg/mL | 375 µg/mL | 1283 µg/mL (≈ 3.6 mM) | Additive | 0.56 | 165 µg/mL | 224 µg/mL | Additive | 0.52 | ~40% | Additive | 0.6 | IC50 [1, 10]: 3.6 mM; IC50 Single Compound ([2]; ATCC PRA-251, compound alone): 1220 µg/mL (≈ 3.42 mM); IC50 ([2]; ATCC PRA-251, compound alone): 3.42 mM; IC50 Single Compound ([4]; ATCC203333, compound alone): 985 µg/mL (≈ 2.76 mM); IC50 [4, 12]: 2.76 mM
O=C(O)[C@H]1O[C@@H](Oc2cccc(O)c2O)[C@H](O)[C@@H](O)[C@@H]1O [DPGA, 2,3-dihydroxyphenyl B-D-glucopyranosiduronic acid] | CND | >500 µg/mL | 47 µg/mL (≈ 0.156 mM) | Synergy | 0.11 | CND | >500 µg/mL | Synergy | 0.18 | 100% | Synergy | 0.18 | IC50 [1, 10]: 0.156 mM; IC50 Single Compound ([2]; ATCC PRA-251, compound alone): 72 µg/mL (≈ 0.238 mM); ratios with synergistic interaction (isobologram) ([2]; DPGA:ascorbic acid combinations, metronidazole resistant strain): 30-50 % DPGA; IC50 ([2]; ATCC PRA-251, compound alone): 0.238 mM; ratios producing synergistic inhibition (isobologram) ([3]; DPGA:ascorbic acid combinations, metronidazole sensitive strains): ≤ 60 % DPGA; IC50 as share of the IC50 of ascorbic acid ([3]; components tested separately): approximately 5%; potency relative to ascorbic acid ([3]; components tested separately): ~20 times; IC50 [3]: 38 to 72 µg/mL; IC50 ([3]; read-out: IC50): ≥ 0.126 mM and 0.126 to 0.238 mM; IC50 Single Compound ([4]; ATCC203333, compound alone): 38 µg/mL (≈ 0.126 mM); IC50 [4, 12]: 0.126 mM
O=C(O)c1cc(O)c(O)c(O)c1 [Gallic acid, gallic acid] | – | – | 1156 µg/mL (≈ 6.8 mM) | Synergy | 0.15 | 132 µg/mL | 147 µg/mL | Synergy | 0.32 | – | Synergy | 0.38 | Toxicity Compound Alone HDF (human dermal fibroblast; human, 24 h): 320 µg/mL; IC50 [1, 6]: 1150 µg/mL and 6.79 mM; IC50 ([2]; Giardia duodenalis): 1260 µg/mL and 7.38 mM; inhibition at 300 µg/mL [3, 11]: ~50%; ratios inducing synergistic responses (isobologram) ([3]; gallic acid:ascorbic acid combinations, all three strains): 30-60 % gallic acid; IC50 [4, 8]: 1370 µg/mL and 8.04 mM
O=C1O[C@@H]([C@H](O)[C@H](O)CO)[C@@H](O)[C@H]1O [Glucohepatonic acid lactone, glucohepatonic acid-1,4-lactone] | CND | >500 µg/mL | 1746 µg/mL (≈ 8.39 mM) | independent (independent (ΣFIC50 > 1.0-4.0)) | 1.19 | CND | >500 µg/mL | Independent | 1.25 | – | Independent | 1.57 | IC50 [1, 10]: 9.91 mM; IC50 Single Compound ([2]; ATCC PRA-251, compound alone): 3536 µg/mL (≈ 17 mM); inhibition of the metronidazole resistant strain (in words) [2]: ineffective inhibitors; IC50 ([2]; ATCC PRA-251, compound alone): 20.1 mM; inhibition of trophozoite proliferation [3, 7]: ~30%; IC50 Single Compound ([4]; ATCC203333, compound alone): 2255 µg/mL (≈ 10.8 mM); IC50 [4, 12]: 12.8 mM
O=C1O[C@H](CO)[C@@H](O)[C@H](O)[C@H]1O [Gluconolactone, gluconolactone] | – | – | – | – | – | CND | – | – | – | did not significantly affect the growth | – | – | Toxicity Compound Alone HDF (human dermal fibroblast): CND
Cc1cc(OCCCC(C)(C)C(=O)O)c(C)cc1O [HMDP, 5-(4-hydroxy-2,5-dimethylphenoxy)-2,2-dimethyl-pentanoic acid] | CND | >500 µg/mL | – | Additive | 0.69 | CND | >500 µg/mL | Independent | 1.1 | – | Additive | 0.81 | IC50 [1, 6]: 1840 µg/mL and 6.89 mM; IC50 ([2]; Giardia duodenalis): 2030 µg/mL and 7.63 mM; inhibition at 300 µg/mL [3, 11]: ~20%; IC50 [4, 8]: 1580 µg/mL and 5.96 mM
c1ncc2[nH]cnc2n1 [Purine, purine] | – | – | – | – | – | CND | – | – | – | did not significantly affect the growth | – | – | Toxicity Compound Alone HDF (human dermal fibroblast): CND
O=C(O)[C@]1(O)C[C@@H](O)[C@@H](O)[C@H](O)C1 [Quinic acid, quinic acid] | – | – | – | Additive | 0.51 | CND | >500 µg/mL | Additive | 0.95 | – | Additive | 0.73 | Toxicity Compound Alone HDF (human dermal fibroblast): CND; IC50 [1, 6]: 1170 µg/mL and 6.1 mM; IC50 ([2]; Giardia duodenalis): 1760 µg/mL and 9.13 mM; inhibition at 300 µg/mL [3, 11]: ~30%; IC50 [4, 8]: 1430 µg/mL and 7.43 mM
O=C1O[C@H](CO)[C@@H](O)[C@H]1O [Ribolactone, ribonolactone] | CND | – | – | – | – | CND | – | – | – | did not significantly affect the growth | – | – | –
CC1(C)S[C@@H]2[C@H](NC(=O)[C@H](N)c3ccccc3)C(=O)N2[C@H]1C(=O)O [ampicillin] | – | – | – | – | – | – | – | – | – | – | – | – | zone of inhibition at 10 µg/disc (Clostridium perfringens; Clostridium perfringens, read-out: zones of inhibition): 13 ± 1 mm; zone of inhibition at 10 µg/disc (Bacillus anthracis; Bacillus anthracis, read-out: zones of inhibition): 10 ± 0.7 mm
[K+].[K+].[O]=[Cr](=[O])([O-])[O][Cr](=[O])(=[O])[O-] [potassium dichromate, Potassium dichromate, reference compound] | 42 µg/mL | – | – | – | – | 37 µg/mL | – | – | – | – | – | – | mortality [5]: 100%; onset of nauplii death (time of exposure) [5]: ≤ 3 h
eujavonic acid | CND | >500 µg/mL | 1438 µg/mL | Additive | 0.58 | CND | >500 µg/mL | Additive | 0.72 | ~20% | Additive | 0.64 | IC50 [1, 10]: 6.04 mM; IC50 Single Compound ([2]; ATCC PRA-251, compound alone): 1850 µg/mL; IC50 ([2]; ATCC PRA-251, compound alone): 7.77 mM; IC50 Single Compound ([4]; ATCC203333, compound alone): 1683 µg/mL; IC50 [4, 12]: 7.07 mM
penicillin | – | – | – | – | – | – | – | – | – | – | – | – | zones of inhibition (Clostridium perfringens; 10 μL extract per 6 mm disc, penicillin 2 μg, ampicillin 10 μg, mean ± SEM): 12.3±0.3 mm; zones of inhibition (Bacillus anthracis; 10 μL extract per 5 mm disc, penicillin 2 μg, ampicillin 10 μg, mean ± SEM): 8.3±0.6 mm
